Experimental data published in patent US11173177B2, “Compounds for treatment of lipoprotein metabolism disorders” (Aarhus Universitet, priority 2016, dated 2021).
“Also recorded” adds a separate entry of the source.

Assays:
PCSK9 [1] = assay: Microscale Thermophoresis (MST) binding to PCSK9; set-up: species or system human; conditions: 100 nM labelled PCSK9, PBS+0.05% Tween-20; for Kd: read-out: KD (affinity for PCSK9, MST)
Procedure: Equilibrium binding affinities between PCSK9 and ligands (suramin, dextran sulfate 5000, dextran 5000, pentosan sulfate and S-dC-36) were assessed using Microscale Thermophoresis (MST) (Jerabek-Willemsen et al., 2011). PCSK9 was labeled using the MO-L003 Monolith Blue-NHS labeling kit (NanoTemper Technologies) and a labeling efficiency of 1:1 molar ratio of protein to dye was achieved. PCSK9 was applied at a final concentration of 100 nM. The unlabeled binding partner was titrated in 1:1 dilutions (in PBS+0.05% Tween-20) where the highest concentrations were 15.4 mM for suramin, 2.3 mM for dextran sulfate 5000, 2.3 mM for dextran 5000, 16.3 mM for pentosan sulfate and 250 μM for S-dC-36. MST measurements were performed in standard-treated capillaries (NanoTemper Technologies) on a Monolith NT.115 instrument (NanoTemper Technologies) using 20% LED and 80% MST power. Laser on and off times were 5 s and 35 s, respectively. Negative controls were performed using 100 nM of labelled PCSK9 in MST buffer in all 16 capillaries under the same conditions as mentioned above. Binding curves were obtained from the temperature-jump phase at 80% MST power for suramin, dextran sulfate 5000 and S-dC-36; and from the thermophoresis+temperature-jump phase at 80% MST power for pentosan sulfate. For each binding partner, the sigmoidal dose-response curves were fitted with GraphPad Prism 6 to yield an average KD value.

LDLR in HepG2 cells [2] = assay: LDLR levels in HepG2 cells by Western blotting and densitometry; type: cell-based, human
HepG2 cells = assay: Uptake of Bodipy-labeled LDL particles in HepG2 cells; type: cell-based, human; conditions: suramin 200 μg/ml overnight, then 4 hours 10 ng/ml Bodipy-LDL
Procedure: FIG. 12: Bar graphs showing the relative fluorescence signal in HepG2 cells after overnight incubation with suramin (200 μg/ml) following 4 hours incubation with 10 ng/ml LDL particles labeled with fluorescence dye Bodipy. Inhibition of PCSK9 with suramin increases the uptake of LDL two-fold.

liver LDLR = assay: Liver LDLR levels in mice after intravenous PCSK9 injection (Western blot); type: in vivo
Procedure: To test the effect of enzymatic removal of heparan sulfate GAGs on PCSK9 activity in vivo 10-12 week-old male BALB6/cJRj mice were infused with heparinase I (30 U) administered through a tail vein catheter 5 min prior injection of PCSK9 (10 μg). In control mice the heparinase injection and/or the PCSK9 injection were replaced with an injection of 0.9% saline. During heparinase infusion, mice were lightly anaesthetized with isoflurane continuously administered through a mask.
Mice (BALB6/cJRj) were subjected to a single intravenous administration (tail vein) of 10 μg human recombinant PCSK9 alone or in combination with heparin (50 U). One hour post injection mice were sacrificed and liver tissues were collected.
Mice (BALB6/cJRj) were subjected to a single intravenous (tail vein) administration of 3.2 μg compound (X) 60 minutes prior injection with PCSK9 (10 μg). PCSK9 induced degradation of liver LDLR was assessed 60 min post PCSK9 injection by Western blotting and quantified by densitometry (FIG. 16 C). Control mice were injected with NaCl or control inhibitor Evolocumab (200 μg), commercially available PCSK9 inhibitory monoclonal antibody (Amgen). LDLR levels were calculated with respect to LDLR level in mice injected with NaCl alone.

PCSK9 [3] = assay: BIACORE analysis of PCSK9 binding to heparin-albumin or albumin sensor chips; set-up: species or system human
Procedure: BIACORE analysis using sensor chips coupled with either albumin (Sigma A4503) or heparin-albumin (Sigma H0403) were used to evaluate the interaction between PCSK9 and heparin. […] An interference assay using BIACORE analysis was implemented to assess the binding between compound (X) and PCSK9. Solutions of 100 nM PCSK9 was incubated with increasing concentrations of compound (X) (0 nM, 10 nM, 100 nM, 1 μM and 10 μM), the solutions were then infused over the sensor chip coupled with heparin-albumin.

LDLR in HepG2 cells [4] = assay: LDLR levels in HepG2 cells by Western blotting and densitometry; type: cell-based, human; conditions: for cellular LDLR, plateau compared to control: dose-dependent increase
Procedure: In the heparin mimetic class of modified polysaccharides compounds dextran sulfate (FIG. 9 A-B) and pentosan (FIG. 9 D-E) were tested in a HepG2 based in vitro cell assay. After overnight incubation LDLR levels were evaluated by Western blotting showing a concentration dependent increase of LDLR upon treatment with dextran sulfate (0-200 μg/ml) with up to 3-fold up regulation of LDLR.
Control cells were incubated without additives (negative control) or 500 μg/ml heparin (positive control). LDLR levels were calculated with respect to the level found in lysate of HepG2 cells incubated without additives.
HepG2 cells were incubated with 0-200 μg/ml of heterogeneously sulfated hexamer or 18-mer oligosaccharides containing on average 1,3 sulfates per disaccharide. After over night incubation cells were harvested and the cellular level of LDLR was analyzed by Western blotting (FIG. 17 A) and quantified by densitometry (FIG. 17 B).

[5] = oral dose; cited from earlier work
PCSK9 [6] = assay: Heparin-sepharose binding assay (free PCSK9 by ELISA); set-up: species or system human; conditions: 500-250 μg/ml, PCSK9 1 μg/ml, over night 4° C.
Procedure: Compound (X) inhibition of PCSK9 binding to Heparin/Heparan sulfate was tested in a Heparin-sepharose binding assay. Heparin-sepharose beads (2 μl) were incubated with PCSK9 (1 μg/ml) with increasing concentrations of compound (X) (0-500 μg/ml) in a total volume of 150 μl 10 mM NaH2PO4. After over night rotation at 4° C., beads were pelleted and the concentration of non-precipitated PCSK9 (free PCSK9) in supernatant was evaluated by ELISA. The concentration of free PCSK9 in each sample was normalised to the PCSK9 level in a sample without Heparin-sepharose beads (input control). As positive control was included a sample with soluble heparin (5 mg/ml) (FIG. 16 A).
Sucrose octasulfate (FIG. 21A) inhibition of PCSK9 binding to Heparin/Heparan sulfate was tested in a Heparin-sepharose binding assay. Heparin-sepharose beads (2 μl) were incubated with PCSK9 (1 μg/ml) and increasing concentrations of sucrose octasulfate (0-500 μg/ml) in a total volume of 150 μl 10 mM NaH2PO4. After over night rotation at 4° C., beads were pelleted and the concentration of non-precipitated PCSK9 (free PCSK9) in supernatant was evaluated by ELISA). Percent free PCSK9 was calculated with respect to the PCSK9 concentration in a sample without Heparin-sepharose beads (input control) (FIG. 21B).

cell surface PCSK9 = assay: Surface PCSK9 immunostaining of non-permeabilized HepG2 cells stably expressing PCSK9; type: cell-based, human; conditions: heparinase I 1 h at 37° C.
Procedure: We speculated that HSPG might be involved in the capture of PCSK9. Thus, we treated human hepatocyte-derived HepG2 cells stably expressing PCSK9 with heparinase I. The enzyme heparinase I cleaves heparan sulfate GAG chains at the 1,4 O-linkage between uronic acid and N-acetyl-D-glucosamine, thereby removing cell surface heparan sulfate chains.
HepG2 cells stably transfected with PCSK9 were seeded at 50.000 cells per coverslip and incubated overnight before addition of heparinase I (Sigma Aldrich/H2519) in PBS (0,0002 UN/ml) or PBS alone. Cells were incubated for 1 h. at 37° C., before fixation in 4% paraformaldehyd and immunostaining of non-permeabilized cells with primary and secondary antibodies. Nuclei were visualized with Hoechst dye (Sigma Aldrich). Images were acquired on a Zeiss LSM780.

**Q.** Which “KD (affinity for PCSK9, MST)” value (PCSK9 [1]) does the source give for dextran here?
**A.** no affinity for PCSK9

**Q.** Which Kd (PCSK9 [1]) does the source give for `Cc1ccc(C(=O)Nc2ccc(S(=O)(=O)O)c3cc(S(=O)(=O)O)cc(S(=O)(=O)O)c23)cc1NC(=O)c1cccc(NC(=O)Nc2cccc(C(=O)Nc3cc(C(=O)Nc4ccc(S(=O)(=O)O)c5cc(S(=O)(=O)O)cc(S(=O)(=O)O)c45)ccc3C)c2)c1` [suramin] here?
**A.** 190 µM

**Q.** What about the “LDLR level compared with cells incubated with statins” value (LDLR in HepG2 cells [2]; 100 μM, 24 and 48 hours, vs mevastatin and simvastatin) of the same molecule?
**A.** higher level of LDLR

**Q.** What about the “increase in LDLR” value (LDLR in HepG2 cells [2]; suramin 0-200 μg/ml, 24 hour) of the same molecule?
**A.** up to fifteen-fold increase in LDLR

**Q.** What about the “uptake of fluorescently labelled LDL particles” value (HepG2 cells) of the same molecule?
**A.** increased cellular uptake of fluorescently labelled LDL particles; also recorded: two-fold

**Q.** And the “level of liver LDLR compared to mice injected with PCSK9 alone” value (liver LDLR; co-injected with PCSK9 (10 μg), heparin 50 U or suramin 300 μg, 1 hour)?
**A.** significantly higher level of LDLR

**Q.** For “heparin-albumin: heparin-albumin (Sigma H0403) coupled to sensor chip”, which Kd (PCSK9 [3]; Example 20 text, read-out: affinity constant of PCSK9 binding) is on record?
**A.** 0.0007 µM

**Q.** Which results are given for pentosan sulfate?
**A.** increase in LDLR (LDLR in HepG2 cells [4]; 50-200 μg/ml, 24 hour / overnight): 4 fold; cellular LDLR, plateau compared to control (LDLR in HepG2 cells [4]): around 400%; Kd (PCSK9 [1]): 381 µM; absorption from the digestive tract, median time after ingestion [5]: 2 h

**Q.** Which “PCSK9 binding to control sensor chip” value (PCSK9 [3]; sensor chip coupled with albumin) does the source give for “albumin: albumin (Sigma A4503) control sensor chip” here?
**A.** no binding was observed

**Q.** For `O=S(=O)(O)OC[C@H]1O[C@@](COS(=O)(=O)O)(O[C@H]2O[C@H](COS(=O)(=O)O)[C@@H](OS(=O)(=O)O)[C@H](OS(=O)(=O)O)[C@H]2OS(=O)(=O)O)[C@@H](OS(=O)(=O)O)[C@@H]1OS(=O)(=O)O` [Sucrose octasulfate], which “inhibition of PCSK9 precipitation with Heparin-sepharose” value (PCSK9 [6]) is on record?
**A.** inhibited PCSK9 precipitation with Heparin-sepharose as well as 5 mg/ml soluble heparin

**Q.** What does the source list for dextran sulfate?
**A.** up regulation of LDLR (LDLR in HepG2 cells [4]; 0-200 μg/ml, overnight): up to 3 fold; cellular level of LDLR (LDLR in HepG2 cells [4]; 200 μg/ml, 24 hour): potently increase the cellular level of LDLR; cellular LDLR, plateau compared to control (LDLR in HepG2 cells [4]): around 400%; Kd (PCSK9 [1]): 180 µM

**Q.** For “phosphorothioate oligodeoxycytidine [S-dC-36]”, which “cellular LDLR levels / PCSK9 inhibitory effect” value (LDLR in HepG2 cells [2]; 0-5.0 μM, 24 hour) is on record?
**A.** potent inhibitory effects; also recorded: concentration dependent increase in cellular receptor levels

B1: heparinase I: enzyme that cleaves heparan sulfate GAG chains (Sigma Aldrich/H2519) (protein, UniProt Q05819 22-384, looked up)
Heparin lyase I: QQKKSGNIPYRVNVQADSAKQKAIIDNKWVAVGINKPYALQYDDKLRFNGKPSYRFELKAEDNSLEGYAAGETKGRTELSYSYATTNDFKKFPPSVYQNAQKLKTVYHYGKGICEQGSSRSYTFSVYIPSSFPDNATTIFAQWHGAPSRTLVATPEGEIKTLSIEEFLALYDRMIFKKNIAHDKVEKKDKDGKITYVAGKPNGWKVEQGGYPTLAFGFSKGYFYIKANSDRQWLTDKADRNNANPENSEVMKPYSSEYKTSTIAYKMPFAQFPKDCWITFDVAIDWTKYGKEANTILKPGKLDVMMTYTKNKKPQKAHIVNQQEILIGRNDDDGYYFKFGIYRVGNSTVPVTYNLSGYSETAR
**Q.** Which “intensity of surface PCSK9 staining” value (cell surface PCSK9) does the source give for B1 here?
**A.** marked decrease in the intensity of surface PCSK9 staining

**Q.** And the “PCSK9 induced degradation of liver LDLR” value (liver LDLR; heparinase I (30 U) infused 5 min prior PCSK9 (10 μg), 1 hour)?
**A.** completely protected; also recorded: completely inhibits

B2: Evolocumab: commercially available PCSK9 inhibitory monoclonal antibody (Amgen) (antibody, chains of the INN, looked up, V domains shown)
VH: EVQLVQSGAEVKKPGASVKVSCKASGYTLTSYGISWVRQAPGQGLEWMGWVSFYNGNTNYAQKLQGRGTMTTDPSTSTAYMELRSLRSDDTAVYYCARGYGMDVWGQGTTVTVSS
VL: ESALTQPASVSGSPGQSITISCTGTSSDVGGYNSVSWYQQHPGKAPKLMIYEVSNRPSGVSNRFSGSKSGNTASLTISGLQAEDEADYYCNSYTSTSMVFGGGTKLTVL
**Q.** For B2, which “decrease of liver LDLR level after PCSK9 injection” value (liver LDLR; inhibitor i.v. 60 min prior PCSK9 (10 μg), compound (X) 0.13 mg/kg, Evolocumab 8 mg/kg, PCSK9 without inhibitor: 50% decrease) is on record?
**A.** no decrease was observed
